The numbers were not newly measured in patent publication US12606719B2, “Methods and compositions comprising biodegradable cyanoacrylates” (FEMASYS, INC., priority 2017, dated 2026), which cites them from elsewhere.

The conditions of this data set: versus cyanoacrylates that degrade by chain scission.

On to methoxypropyl cyanoacrylate, for which the hydrophilicity result is on record as “more hydrophilic”.
